Assay results as given in EPA's ToxRefDB 2.

Assays:
rabbit [1] = conditions: Prenatal developmental toxicity study, new zealand white, Oral, Gavage/Intubation, dose end: 19 GD
dog [2] = conditions: Combined chronic toxicity/carcinogenicity; beagle; Oral; Feed; dose end: 104 week; group: systemic; systemic / clinical chemistry / alanine aminotransferase (alt/sgpt) / alanine aminotransferase (alt/sgpt) + systemic / clinical chemistry / …
rat [3] = conditions: Subchronic oral toxicity in rodents, other, Feed, dose end: 90 day, group: systemic, systemic / pathology gross / kidney / enlarged + systemic / pathology gross / liver / enlarged + systemic / urinalysis / glucose / glucose…
mouse [4] = conditions: Carcinogenicity, cd1, Oral, Feed, dose end: 80 week, group: systemic
dog [5] = conditions: Chronic toxicity; beagle; Oral; Feed; dose end: 12 month; group: systemic; systemic / clinical chemistry / alkaline phosphatase (alp/alk) / alkaline phosphatase (alp/alk) + systemic / organ weight / liver / absolute…
rat [6] = conditions: Subchronic oral toxicity in rodents, fischer, Feed, dose end: 90 day, group: systemic
mouse [7] = conditions: Subchronic oral toxicity in rodents, cd1, Feed, dose end: 13 week, group: systemic, systemic / organ weight / liver / absolute + systemic / organ weight / liver / relative to body weight + systemic / pathology microscopic / …
rat [8] = conditions: Combined chronic toxicity/carcinogenicity, fischer, Oral, Feed, dose end: 24 month, group: systemic
mouse [9] = conditions: Carcinogenicity, cd1, Oral, Water, dose end: 104 week, group: systemic
rat [10] = conditions: Prenatal developmental toxicity study, wistar, Oral, Gavage/Intubation, dose end: 17 GD
dog [11] = conditions: Chronic toxicity, beagle, Oral, Capsule, dose end: 52 week, group: systemic
rabbit [12] = conditions: Prenatal developmental toxicity study, new zealand white, Oral, Gavage/Intubation, dose end: 20 GD
dog [13] = conditions: Subchronic oral toxicity in nonrodent, beagle, Capsule, dose end: 90 day, group: systemic, systemic / clinical chemistry / alanine aminotransferase (alt/sgpt) / alanine aminotransferase (alt/sgpt) + systemic / clinical chemistry / …
rat [14] = conditions: Combined chronic toxicity/carcinogenicity, wistar, Oral, Water, dose end: 104 week, group: systemic
rat [15] = conditions: Subchronic oral toxicity in rodents, fischer, Feed, dose end: 13 week
mouse [16] = conditions: Subchronic dermal toxicity, b6c3f1, Topical, dose end: 13 week, group: systemic, systemic / pathology gross / sperm measure / sperm count
mouse [17] = conditions: Subchronic oral toxicity in rodents, b6c3f1, Feed, dose end: 13 week, group: systemic
rat [18] = conditions: Subchronic dermal toxicity, fischer, Topical, dose end: 13 week, group: systemic, systemic / organ weight / kidney / relative to body weight
rat [19] = conditions: Subchronic oral toxicity in rodents; sprague dawley; Inhalation; Whole-Body; dose end: 3 month; group: systemic; systemic / clinical chemistry / gamma glutamyl transferase (ggt) / gamma glutamyl transferase (ggt) + systemic / clinical chemistry / …
rat [20] = conditions: Combined chronic toxicity/carcinogenicity; sprague dawley; Inhalation; Whole-Body; dose end: 24 month; group: systemic; systemic / clinical chemistry / alanine aminotransferase (alt/sgpt) / alanine aminotransferase (alt/sgpt) + systemic / clinical chemistry / …
rat [21] = conditions: Subchronic oral toxicity in rodents, sprague dawley, Feed, dose end: 3 month, group: systemic
rat [22] = conditions: Prenatal developmental toxicity study, sprague dawley, Oral, Gavage/Intubation, dose end: 17 GD
dog [23] = conditions: Subchronic oral toxicity in nonrodent, beagle, Capsule, dose end: 90 day, group: systemic
rat [24] = conditions: Subchronic oral toxicity in rodents, fischer, Gavage/Intubation, dose end: 14 week, group: systemic
mouse [25] = conditions: Subchronic oral toxicity in rodents, b6c3f1, Gavage/Intubation, dose end: 14 week, group: systemic, systemic / hematology / erythrocyte (rbc) count differential / erythrocyte (rbc) + systemic / hematology / hematocrit (hct) / hematocrit (…
[26] = group: developmental, developmental / developmental malformation / bone / supernumerary + systemic / in life observation / body weight / fetal weight
[27] = group: maternal, systemic / in life observation / body weight / body weight gain
[28] = systemic / in life observation / body weight / body weight + systemic / in life observation / body weight / body weight gain + systemic / …
[29] = systemic / in life observation / body weight / body weight gain + systemic / pathology microscopic / liver / hypertrophy + systemic / in …
[30] = systemic / in life observation / body weight / body weight gain + systemic / pathology microscopic / liver / hypertrophy + systemic / organ …
[31] = systemic / in life observation / body weight / body weight gain + systemic / organ weight / kidney / relative to body weight
[32] = systemic / in life observation / body weight / body weight gain + systemic / organ weight / kidney / relative to body weight + systemic / …
[33] = systemic / in life observation / food consumption / food consumption + systemic / in life observation / water consumption / water …
[34] = systemic / pathology microscopic / liver / sarcoma + systemic / pathology gross / full gross necropsy / sarcoma
[35] = group: developmental, developmental / developmental malformation / bone / unossified + developmental / developmental malformation / other / other + systemic / in …
[36] = group: maternal, systemic / in life observation / body weight / body weight gain + systemic / in life observation / food consumption / food consumption
[37] = group: maternal, systemic / in life observation / body weight / body weight gain + systemic / in life observation / food consumption / food consumption + …
[38] = systemic / clinical chemistry / alanine aminotransferase (alt/sgpt) / alanine aminotransferase (alt/sgpt) + systemic / pathology microscopic…
[39] = systemic / clinical chemistry / aspartate aminotransferase (ast/sgot) / aspartate aminotransferase (ast/sgot) + systemic / hematology / …
[40] = group: developmental, developmental / developmental malformation / bone / enlarge suture + developmental / developmental malformation / bone / incomplete …
[41] = systemic / clinical chemistry / cholesterol / cholesterol + systemic / clinical chemistry / triglycerides / triglycerides + systemic / …
[42] = group: maternal, reproductive / reproductive performance / estrous cycle / length
[43] = group: systemic, systemic / clinical chemistry / gamma glutamyl transferase (ggt) / gamma glutamyl transferase (ggt) + systemic / in life observation / body …
[44] = group: systemic, systemic / organ weight / liver / absolute + systemic / organ weight / liver / relative to body weight
[45] = systemic / organ weight / liver / relative to body weight
[46] = systemic / hematology / hematocrit (hct) / hematocrit (hct) + systemic / hematology / hemoglobin (hgb) / hemoglobin (hgb)
[47] = systemic / hematology / hematocrit (hct) / hematocrit (hct) + systemic / hematology / hemoglobin (hgb) / hemoglobin (hgb) + systemic / in …
[48] = group: developmental, developmental / developmental malformation / bone / full supernumerary + developmental / developmental malformation / bone / cervical + …
[49] = systemic / organ weight / liver / absolute + systemic / organ weight / liver / relative to body weight
[50] = systemic / clinical chemistry / alanine aminotransferase (alt/sgpt) / alanine aminotransferase (alt/sgpt) + systemic / clinical chemistry / …
[51] = systemic / hematology / hematocrit (hct) / hematocrit (hct) + systemic / pathology microscopic / nose / degeneration + systemic / clinical …

COc1cc(Cl)c(OC)cc1Cl [Chloroneb]
LEL (rabbit [1]; [26]): 1000 mg/kg/day
LOAEL (rabbit [1]; [26]): 1000 mg/kg/day
NEL (rabbit [1]; [26]): 100 mg/kg/day
NOAEL (rabbit [1]; [26]): 100 mg/kg/day
LEL (rabbit [1]; [27]): 1000 mg/kg/day
LOAEL (rabbit [1]; [27]): 1000 mg/kg/day
NEL (rabbit [1]; [27]): 100 mg/kg/day
NOAEL (rabbit [1]; [27]): 100 mg/kg/day
LEL (dog [2]): 62.5 mg/kg/day
LOAEL (dog [2]): 62.5 mg/kg/day
NEL (dog [2]): 12.5 mg/kg/day
NOAEL (dog [2]): 12.5 mg/kg/day
LEL (rat [3]): 375 mg/kg/day
LOAEL (rat [3]): 375 mg/kg/day
NEL (rat [3]): 25 mg/kg/day
NOAEL (rat [3]): 25 mg/kg/day

Fc1ccc(Oc2ccnc3cc(Cl)cc(Cl)c23)cc1 [Quinoxyfen]
LOAEL (mouse [4]; systemic / in life observation / body weight / body weight + systemic / in life observation / body weight / body weight gain): 250 mg/kg/day
LEL (mouse [4]; [28]): 250 mg/kg/day
NEL (mouse [4]; [28]): 80 mg/kg/day
NOAEL (mouse [4]; [28]): 80 mg/kg/day
LEL (dog [5]): 200 mg/kg/day
LOAEL (dog [5]): 200 mg/kg/day
NEL (dog [5]): 20 mg/kg/day
NOAEL (dog [5]): 20 mg/kg/day
NEL (rat [6]; [29]): 10 mg/kg/day
NOAEL (rat [6]; [29]): 10 mg/kg/day
LEL (rat [6]; [30]): 100 mg/kg/day
LOAEL (rat [6]; [30]): 100 mg/kg/day
LEL (mouse [7]): 500 mg/kg/day
LOAEL (mouse [7]): 500 mg/kg/day
NEL (mouse [7]): 100 mg/kg/day
NOAEL (mouse [7]): 100 mg/kg/day
NEL (rat [8]; [31]): 20 mg/kg/day
NOAEL (rat [8]; [31]): 20 mg/kg/day
LEL (rat [8]; [32]): 80 mg/kg/day
LOAEL (rat [8]; [32]): 80 mg/kg/day

CNC(=S)[S-].[Na+] [Metam-sodium]
LOAEL (mouse [9]; [33]): 6.5 mg/kg/day
NOAEL (mouse [9]; [33]): 1.6 mg/kg/day
LEL (mouse [9]; [34]): 1.6 mg/kg/day
NEL (mouse [9]; [34]): < 1.6 mg/kg/day
LOAEL (rat [10]; group: developmental, developmental / developmental malformation / bone / unossified + developmental / developmental malformation / other / other): 20 mg/kg/day
LEL (rat [10]; [35]): 20 mg/kg/day
NEL (rat [10]; [35]): 5 mg/kg/day
NOAEL (rat [10]; [35]): 5 mg/kg/day
LOAEL (rat [10]; [36]): 20 mg/kg/day
LEL (rat [10]; [37]): 20 mg/kg/day
NEL (rat [10]; [37]): 5 mg/kg/day
NOAEL (rat [10]; [37]): 5 mg/kg/day
LOAEL (dog [11]; [38]): 1 mg/kg/day
NOAEL (dog [11]; [38]): 0.1 mg/kg/day
LEL (dog [11]; [39]): 0.05 mg/kg/day
NEL (dog [11]; [39]): < 0.05 mg/kg/day
LEL (rabbit [12]; [40]): 20 mg/kg/day
LOAEL (rabbit [12]; [40]): 20 mg/kg/day
NEL (rabbit [12]; [40]): 5 mg/kg/day
NOAEL (rabbit [12]; [40]): 5 mg/kg/day
LEL (rabbit [12]; [37]): 20 mg/kg/day
LOAEL (rabbit [12]; [37]): 20 mg/kg/day
NEL (rabbit [12]; [37]): 5 mg/kg/day
NOAEL (rabbit [12]; [37]): 5 mg/kg/day
LEL (dog [13]): 1 mg/kg/day
LOAEL (dog [13]): 1 mg/kg/day
NEL (dog [13]): < 1 mg/kg/day
NOAEL (dog [13]): < 1 mg/kg/day
LOAEL (rat [14]; [41]): 12 mg/kg/day
NOAEL (rat [14]; [41]): 3.9 mg/kg/day
LEL (rat [14]; systemic / in life observation / body weight / body weight gain): 6.2 mg/kg/day
NEL (rat [14]; systemic / in life observation / body weight / body weight gain + systemic / clinical chemistry / cholesterol / cholesterol + systemic / …): 2.3 mg/kg/day

COc1ccc(C(=O)c2ccccc2)c(O)c1 [2-Hydroxy-4-methoxybenzophenone]
LEL (rat [15]; [42]): 3260 mg/kg/day
LOAEL (rat [15]; [42]): > 3260 mg/kg/day
NEL (rat [15]; [42]): 1600 mg/kg/day
NOAEL (rat [15]; [42]): ≥ 3260 mg/kg/day
LOAEL (rat [15]; [43]): > 3260 mg/kg/day
NOAEL (rat [15]; [43]): ≥ 3260 mg/kg/day
LEL (rat [15]; [44]): 196 mg/kg/day
NEL (rat [15]; [44]): < 196 mg/kg/day
LEL (mouse [16]): 22.5 mg/kg/day
LOAEL (mouse [16]): > 364 mg/kg/day
NEL (mouse [16]): < 22.5 mg/kg/day
NOAEL (mouse [16]): ≥ 364 mg/kg/day
LOAEL (mouse [17]; [28]): > 13900 mg/kg/day
NOAEL (mouse [17]; [28]): ≥ 13900 mg/kg/day
LEL (mouse [17]; [45]): 629 mg/kg/day
NEL (mouse [17]; [45]): < 629 mg/kg/day
LEL (rat [18]): 25 mg/kg/day
LOAEL (rat [18]): > 200 mg/kg/day
NEL (rat [18]): 12.5 mg/kg/day
NOAEL (rat [18]): ≥ 200 mg/kg/day

C=CN1CCCC1=O [N-Vinyl-2-pyrrolidone]
LEL (rat [19]): 45 ppm
LOAEL (rat [19]): > 45 ppm
NEL (rat [19]): < 45 ppm
NOAEL (rat [19]): ≥ 45 ppm
LEL (rat [20]): 5 ppm
LOAEL (rat [20]): > 20 ppm
NEL (rat [20]): < 5 ppm
NOAEL (rat [20]): ≥ 20 ppm

CC(C)(C)C(O)/C(=C\c1ccc(Cl)cc1Cl)n1cncn1 (stereo not given) [Diniconazole]
LOAEL (rat [21]; [46]): 0.71 mg/kg/day
NOAEL (rat [21]; [46]): < 0.71 mg/kg/day
LEL (rat [21]; [47]): 0.71 mg/kg/day
NEL (rat [21]; [47]): < 0.71 mg/kg/day
LOAEL (rat [22]; group: developmental, developmental / developmental malformation / bone / full supernumerary + developmental / developmental malformation / bone / cervical): 20 mg/kg/day
LEL (rat [22]; [48]): 20 mg/kg/day
NEL (rat [22]; [48]): 5 mg/kg/day
NOAEL (rat [22]; [48]): 5 mg/kg/day
LEL (rat [22]; [36]): 20 mg/kg/day
LOAEL (rat [22]; [36]): 20 mg/kg/day
NEL (rat [22]; [37]): 5 mg/kg/day
NOAEL (rat [22]; [37]): 5 mg/kg/day
LOAEL (dog [23]; systemic / in life observation / food consumption / food efficiency): 200 mg/kg/day
NOAEL (dog [23]; systemic / in life observation / food consumption / food efficiency + systemic / clinical chemistry / alkaline phosphatase (alp/alk) / …): 40 mg/kg/day
LEL (dog [23]; [49]): 40 mg/kg/day
NEL (dog [23]; [49]): < 40 mg/kg/day

CCCC=NO [Butanal oxime]
LOAEL (rat [24]; [50]): > 600 mg/kg/day
NOAEL (rat [24]; [50]): ≥ 600 mg/kg/day
LEL (rat [24]; [51]): 25 mg/kg/day
NEL (rat [24]; [51]): < 25 mg/kg/day
LEL (mouse [25]): 25 mg/kg/day
LOAEL (mouse [25]): > 600 mg/kg/day
NEL (mouse [25]): < 25 mg/kg/day
NOAEL (mouse [25]): ≥ 600 mg/kg/day
